According to the Kinase Knowledgebase extract (Sharma et al. 2016):
Where “and” joins values, the source holds several entries; their conditions need not be identical. Equal entries are not always repeated.

Legend:
EGFR (human) [1] = target: EGFR (human) (UniProt P00533); conditions: HN5
EGFR (human) [2] = target: EGFR (human) (UniProt P00533); conditions: caski
EGFR (human) [3] = target: EGFR (human) (UniProt P00533); conditions: a431
EGFR (human) [4] = target: EGFR (human) (UniProt P00533); conditions: siha
EGFR (human) [5] = target: EGFR (human) (UniProt P00533); conditions: hn5

Chain of EGFR (human) (P00533 whole entry, looked up): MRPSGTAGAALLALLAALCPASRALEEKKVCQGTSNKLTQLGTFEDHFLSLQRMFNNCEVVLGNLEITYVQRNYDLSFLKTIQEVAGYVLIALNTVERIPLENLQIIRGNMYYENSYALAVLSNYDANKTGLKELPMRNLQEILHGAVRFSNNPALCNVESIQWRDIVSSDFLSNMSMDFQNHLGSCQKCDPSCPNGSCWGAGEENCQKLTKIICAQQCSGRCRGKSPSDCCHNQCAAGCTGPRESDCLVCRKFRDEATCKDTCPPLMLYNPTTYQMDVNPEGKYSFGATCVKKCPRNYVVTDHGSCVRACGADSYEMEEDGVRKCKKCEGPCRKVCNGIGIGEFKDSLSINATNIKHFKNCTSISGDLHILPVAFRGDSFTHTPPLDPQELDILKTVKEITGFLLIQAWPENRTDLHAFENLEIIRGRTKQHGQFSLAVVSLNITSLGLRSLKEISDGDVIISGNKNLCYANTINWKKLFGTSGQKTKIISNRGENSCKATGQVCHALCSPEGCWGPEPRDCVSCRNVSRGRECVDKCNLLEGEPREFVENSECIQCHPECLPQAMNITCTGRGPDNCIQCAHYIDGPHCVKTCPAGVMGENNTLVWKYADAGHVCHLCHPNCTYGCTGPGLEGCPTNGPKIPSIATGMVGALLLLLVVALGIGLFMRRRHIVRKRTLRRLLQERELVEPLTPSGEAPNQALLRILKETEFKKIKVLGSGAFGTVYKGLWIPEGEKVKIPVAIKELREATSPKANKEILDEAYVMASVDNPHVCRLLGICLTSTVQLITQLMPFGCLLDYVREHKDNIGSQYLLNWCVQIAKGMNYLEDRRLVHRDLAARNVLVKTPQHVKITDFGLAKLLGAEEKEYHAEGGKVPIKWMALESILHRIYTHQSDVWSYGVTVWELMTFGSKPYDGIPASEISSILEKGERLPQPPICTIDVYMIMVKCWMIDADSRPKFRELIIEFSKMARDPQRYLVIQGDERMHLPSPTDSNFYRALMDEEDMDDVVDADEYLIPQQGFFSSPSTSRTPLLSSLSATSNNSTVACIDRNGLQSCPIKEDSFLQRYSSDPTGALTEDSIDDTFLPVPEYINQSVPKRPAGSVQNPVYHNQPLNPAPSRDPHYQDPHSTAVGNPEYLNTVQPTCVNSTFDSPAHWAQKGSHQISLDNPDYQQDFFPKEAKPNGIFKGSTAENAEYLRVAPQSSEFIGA

Row | Compound | IC50 (EGFR (human) [1]) | IC50 (EGFR (human) [2]) [µM] | IC50 (EGFR (human) [3]) [µM] | IC50 (EGFR (human) [4]) [µM] | IC50 (EGFR (human) [5]) [µM]
1 | N#C/C(=C\c1ccsc1[N+](=O)[O-])C(N)=S | 22.6 µM | 0.32 | 0.11 | 0.35 | 0.27
2 | CCOC(=O)/C(C#N)=C/c1ccsc1[N+](=O)[O-] | 100 µM |  |  |  | 
3 | N#C/C(=C\c1ccc([N+](=O)[O-])s1)C(=O)O | 150 µM and > 500 µM |  |  |  | 
4 | COC(=O)/C(C#N)=C/c1ccsc1[N+](=O)[O-] | 50 µM |  |  |  | 
5 | CCOC(=O)/C(C#N)=C/c1csc([N+](=O)[O-])c1 | 9 µM | > 100 | > 100 | > 100 | > 100
6 | N#CC(C#N)=C(N)/C(C#N)=C/c1csc([N+](=O)[O-])c1 | 7 µM | > 100 | > 100 | > 100 | > 100
7 | N#CC(C#N)=Cc1ccc([N+](=O)[O-])s1 | 50 µM | 25.8 | 28 | 25.4 | 20.7
8 | COC(=O)/C(C#N)=C/c1cc([N+](=O)[O-])cs1 | 18 µM |  |  |  | 
9 | CC(C)(C)OC(=O)/C(C#N)=C/c1csc([N+](=O)[O-])c1 | 150 µM |  |  |  | 
10 | N#C/C(=C\c1csc([N+](=O)[O-])c1)C(N)=O | > 500 µM |  |  |  | 
11 | N#C/C(=C\c1csc([N+](=O)[O-])c1)C(N)=S | 10.5 µM |  |  |  | 
12 | N#CC(C#N)=C(N)/C(C#N)=C/c1cc([N+](=O)[O-])cs1 | 160 µM |  |  |  | 
13 | CC(C)(C)OC(=O)/C(C#N)=C/c1ccc([N+](=O)[O-])s1 | 75 µM |  |  |  | 
14 | N#C/C(=C\c1cc([N+](=O)[O-])cs1)C(N)=S | > 500 µM |  |  |  | 
15 | CC(C)(C)OC(=O)/C(C#N)=C/c1ccsc1[N+](=O)[O-] | 9 µM |  |  |  | 
16 | N#C/C(=C\c1ccsc1[N+](=O)[O-])C(N)=O | 400 µM |  |  |  | 
17 | N#C/C(=C\c1ccc([N+](=O)[O-])s1)C(N)=S | 37.5 µM | 82.9 | 71.6 | 82.1 | 66.9
18 | CCCCOC(=O)/C(C#N)=C/c1ccc([N+](=O)[O-])s1 | > 500 µM |  |  |  | 
19 | COC(=O)/C(C#N)=C/c1ccc([N+](=O)[O-])s1 | > 500 µM |  |  |  | 
20 | CCCCOC(=O)/C(C#N)=C/c1csc([N+](=O)[O-])c1 | > 500 µM |  |  |  | 
21 | CCCCOC(=O)/C(C#N)=C/c1cc([N+](=O)[O-])cs1 | > 500 µM |  |  |  | 
22 | N#C/C(=C\c1csc([N+](=O)[O-])c1)C(=O)O | > 500 µM |  |  |  | 
23 | CCCCOC(=O)/C(C#N)=C/c1ccsc1[N+](=O)[O-] | > 500 µM |  |  |  | 
24 | N#C/C(=C\c1ccc([N+](=O)[O-])s1)C(N)=O | > 500 µM |  |  |  | 
25 | COC(=O)/C(C#N)=C/c1csc([N+](=O)[O-])c1 | > 500 µM |  |  |  | 
26 | N#CC(C#N)=Cc1ccsc1[N+](=O)[O-] | 15.3 µM |  |  |  | 
27 | N#CC(C#N)=Cc1cc([N+](=O)[O-])cs1 | 2 µM |  |  |  | 
28 | N#CC(C#N)=C(N)/C(C#N)=C/c1ccsc1[N+](=O)[O-] | 14.6 µM | 4.7 | 4.73 | 7.8 | 5.1
29 | N#C/C(=C\c1cc([N+](=O)[O-])cs1)C(N)=O | 47 µM |  |  |  | 
30 | CCOC(=O)/C(C#N)=C/c1cc([N+](=O)[O-])cs1 | > 500 µM |  |  |  | 
